In patent US9050264B2, “Cellulose capsules and methods for making them” (University of Iowa Research Foundation, priority 2009, dated 2015):
Where a name gives a salt, the structure may show the parent alone.

What was measured:
Type in all cases: physicochemical
[1] = Release of KCl from cellulose capsules in unstirred aqueous urea solutions (potassium ion selective electrode); conditions: cellulose capsule (shell 0.07-0.10 mm), KCl 500 mg, unstirred 200 mL, 37 C
Protocol: Cellulose capsule shells (shell thickness 0.07-0.10 mm), prepared according to Example 2, were filled with KCl (500 mg) and subjected to the release study in the unstirred dissolution medium (200 mL) containing 0.0, 1.5, 3.0, 5.5, or 8.0 M urea at 37±0.5° C. using a Hansen Research USP II basket apparatus (Hansen Research Corp., Chatsworth, Calif.). The amount of KCl released was analyzed using a potassium ion selective electrode connected to a pH meter (Orion model 420, Fisher Scientific, Inc., Pittsburgh, Pa.).

[2] = Dissolution study of cellulose:Eudragit S100 capsule shells in pH 3.0 and pH 7.4 buffers (USP II basket, HPLC); conditions: Cellulose:Eudragit (90:10%, w/w) capsule shell ~0.08 mm, acetaminophen 50 mg + anhydrous lactose 150 mg
Protocol: Cellulose:Eudragit (90:10%, w/w) capsule shells (shell thickness˜0.08 mm) prepared according to Example 2 were filled with a homogeneously mixed powder blend of acetaminophen (50 mg) and anhydrous lactose (150 mg) and subjected to dissolution study first in pH 3.0 phthalate buffer (900 mL) for 3 h at 37±0.5° C. and 100±2 r.p.m followed by in pH 7.4 phosphate buffer (900 mL) for 5 h at 37±0.5° C. and 100±2 r.p.m. using a Hansen Research USP II basket apparatus (Hansen Research Corp., Chatsworth, Calif.). The amount of drug released was determined by HPLC according to the method described above. […] The higher steady-state release rate observed for acetaminophen at pH 7.4 is attributed to the dissolution of Eudragit, causing the capsule shell to become more porous.
Cellulose, cellulose-Eudragit (90:10) and cellulose:Eudragit (90:10%, w/w) capsule shells (shell thickness˜0.08 mm) were prepared according to Example 2. The dissolution test was carried out in pH 7.4 phosphate buffer (900 mL) for 5 h at 37±0.5° C. and 100±2 r.p.m. using a Hansen Research USP II basket apparatus (Hansen Research Corp., Chatsworth, Calif.). The amount of drug released was determined by HPLC according to the method described above. FIG. 12 compares the release results from the three capsule systems. The steady-state release rates calculated were 1.8, 3.1 and 4.6 mg/h, respectively.

[3] = Dissolution study of acetaminophen release from cellulose capsules in water (USP II basket, HPLC); conditions: for release rate: acetaminophen 50 mg + lactose 150 mg, water 900 mL, 37 C, 100 r.p.m.
Protocol: Cellulose capsule shells of three different shell thicknesses (0.05, 0.06 and 0.07 mm) were prepared from the methylolcellulose solution (cellulose content 4.4%, w/w) according to Example 2. They were filled with a homogeneously mixed powder blend of acetaminophen (50 mg) and lactose (150 mg). The dissolution study was performed in water (900 mL) at 37±0.5° C. and 100±2 r.p.m. using a Hansen Research USP II basket apparatus (Hansen Research Corp., Chatsworth, Calif.). The amount of drug released was determined by high performance liquid chromatography (HPLC) using an absolute calibration method and a fully automated Shimadzu LC-6A high performance liquid chromatograph, equipped with a C18 analytical column (Supelco—Sigma Aldrich, Bellefonte, Pa.). The drug was eluted with a 1:3 methanol:water mixture at a flow rate of 0.5 mL/min and detected at a wavelength of 243 nm. The release of acetaminophen increased linearly with time (see FIG. 4A).
Cellulose capsule shells (shell thickness 0.07-0.10 mm) prepared according to Example 2 were filled with 50, 100 and 200 mg of acetaminophen. The release studies were carried out in purified water (900 mL) at 37±0.5° C. and 100±2 r.p.m. The amount of acetaminophen released over time was determined by HPLC using conditions described above.
Cellulose capsule shells (shell thickness 0.07-0.10 mm), prepared according to Example 2, were filled with a homogeneously mixed powder blend of acetaminophen (100 mg) and 15, 50, 100, 150, or 200 mg of polyethylene glycol (PEG) 8000 (corresponding to the percent weight ratio of 87:13, 67:33, 50:50, 40:60, or 33:67, respectively, for the total powder fill in the capsule). The release studies were performed in purified water (900 mL) at 37±0.5° C. and 100±2 r.p.m. using the Hansen Research USP II basket apparatus (Hansen Research Corp., Chatsworth, Calif.). The amount of acetaminophen released was determined by HPLC as described above. […] Above 60% w/w PEG 8000 in the formulation, there was no change in the release rate compared to the rate at 50% PEG in the mixture.
Cellulose capsule shells (shell thickness 0.07-0.1 mm) prepared according to Example 2 were filled with acetaminophen (100 mg) and 50, 100 and 200 mg potassium chloride (KCl) (corresponding to the weight ratio of 33:67, 50:50 or 67:33, respectively, for the total powder fill in the capsule). The amounts of acetaminophen released at different times were determined by HPLC, following the procedure described above.

[4] = Release of diphenhydramine hydrochloride from cellulose capsules in water (USP II basket, HPLC); conditions: cellulose capsule, water 900 mL
Protocol: Cellulose capsule shells (shell thickness 0.07-1.0 mm), prepared according to Example 2, were filled with diphenhydramine hydrochloride and lactose (400 mg) mixed in different weight-by-weight ratios (50:50, 25:75, 12.5:87.5, 6.25:93.75 or 3.75:96.25 weight ratios of diphenhydramine hydrochloride and lactose, respectively). The release study was performed in water (900 mL) at 37±0.5° C. and 100±2 r.p.m. using a Hansen Research USP II basket apparatus (Hansen Research Corp., Chatsworth, Calif.). The amount of drug released was determined by HPLC using a fully automated Shimadzu LC-10A high performance liquid chromatograph, equipped with a C18 analytical column (Supelco). The drug was eluted with a 1:4 (v/v) mixture of methanol:water (containing 1% triethylamine and 2% glacial acetic acid) at a flow rate of 0.2 mL/min and detected at a wavelength of 256 nm. […] The steady state release rates mentioned above depended linearly with the calculated osmotic pressure developed inside the capsule shell.

In the case of `[Cl-].[K+]` [KCl, potassium chloride], the “steady state release rate” value ([1]; 0.0 M urea) is reported as 142.8 mg/h, the “steady state release rate” value ([1]; 1.5 M urea) is reported as 115.8 mg/h and the “steady state release rate” value ([1]; 3.0 M urea) is reported as 100.2 mg/h. For the same molecule, the “steady state release rate” value ([1]; 5.5 M urea) was 73.8 mg/h and the “steady state release rate” value ([1]; 8.0 M urea) was 46.2 mg/h.
In the case of `CC(=O)Nc1ccc(O)cc1` [acetaminophen], the steady-state release rate ([2]; pH 3.0 phthalate buffer, 3 h) is reported as 2.68 mg/h, the steady-state release rate ([2]; pH 7.4 phosphate buffer, 5 h) is reported as 4.76 mg/h and the steady-state release rate ([3]; cellulose capsule (shell 0.07-0.10 mm) filled with 50 mg acetaminophen, purified water) is reported as 3.05 mg/h. The steady-state release rate ([3]; cellulose capsule (shell 0.07-0.10 mm) filled with 100 mg acetaminophen, purified water) was 3.43 mg/h, the steady-state release rate ([3]; cellulose capsule (shell 0.07-0.10 mm) filled with 200 mg acetaminophen, purified water) was 3.15 mg/h and the steady-state release rate ([3]; cellulose capsule (shell 0.07-0.10 mm), 33:67 (% w/w) acetaminophen:PEG 8000 (100 mg + 200 mg), purified water) was 7.38 mg/h. The steady-state release rate ([3]; cellulose capsule (shell 0.07-0.1 mm), 33:67 acetaminophen:KCl mixture) was 9.94 mg/h, the steady-state release rate ([3]; cellulose capsule (shell 0.07-0.10 mm), 40:60 (% w/w) acetaminophen:PEG 8000 (100 mg + 150 mg), purified water) was 7.17 mg/h and the steady-state release rate ([3]; cellulose capsule (shell 0.07-0.10 mm), 50:50 (% w/w) acetaminophen:PEG 8000 (100 mg + 100 mg), purified water) was 6.95 mg/h. The steady-state release rate ([3]; cellulose capsule (shell 0.07-0.1 mm), 50:50 acetaminophen:KCl mixture) was 10.14 mg/h, the steady-state release rate ([3]; cellulose capsule (shell 0.07-0.10 mm), 67:33 (% w/w) acetaminophen:PEG 8000 (100 mg + 50 mg), purified water) was 6.62 mg/h and the steady-state release rate ([3]; cellulose capsule (shell 0.07-0.1 mm), 67:33 acetaminophen:KCl mixture) was 11.41 mg/h. For the same molecule, the steady-state release rate ([3]; cellulose capsule (shell 0.07-0.10 mm), 87:13 (% w/w) acetaminophen:PEG 8000 (100 mg + 15 mg), purified water) was 5.92 mg/h, the release rate ([3]; cellulose capsule shell thickness 0.05 mm) was 5.25 mg/h and the release rate ([3]; cellulose capsule shell thickness 0.06 mm) was 4.30 mg/h. For the same molecule, the release rate ([3]; cellulose capsule shell thickness 0.07 mm) was 3.06 mg/h.
`CN(C)CCOC(c1ccccc1)c1ccccc1` [diphenhydramine hydrochloride] showed a steady-state release rate ([4]; 3.75:96.25 diphenhydramine hydrochloride:lactose core powder mixture (400 mg)) of 3.92 mg/h, a steady-state release rate ([4]; 6.25:93.75 diphenhydramine hydrochloride:lactose core powder mixture (400 mg)) of 7.58 mg/h and a steady-state release rate ([4]; 12.5:87.5 diphenhydramine hydrochloride:lactose core powder mixture (400 mg)) of 12.70 mg/h. The steady-state release rate ([4]; 25:75 diphenhydramine hydrochloride:lactose core powder mixture (400 mg)) was 34.17 mg/h and the steady-state release rate ([4]; 50:50 diphenhydramine hydrochloride:lactose core powder mixture (400 mg)) was 67.96 mg/h.
